Assay results as given in the NIST ThermoML archive (doi:10.1016/j.tca.2009.07.002).

Assays:
[1] = 101 kPa, Liquid, Vibrating tube method
[2] = xn = mol fraction of the nth substance listed; conditions: 101 kPa, Liquid, Vibrating tube method

CCCCO [butan-1-ol]
[1]
Conditions | mass density [kg/m3]
288.15 K | 813.373
293.15 K | 809.573
298.15 K | 805.762
303.15 K | 801.923
308.15 K | 798.053
313.15 K | 794.147
318.15 K | 790.231
323.15 K | 786.238

CCCCO [butan-1-ol] + NC1CCCCC1
[2], x1 = 1
Conditions | mass density [kg/m3]
288.15 K | 813.373
293.15 K | 809.573
298.15 K | 805.762
303.15 K | 801.923
308.15 K | 798.053
313.15 K | 794.147
318.15 K | 790.231
323.15 K | 786.238

NC1CCCCC1 [cyclohexylamine]
[1]
Conditions | mass density [kg/m3]
288.15 K | 871.29
293.15 K | 866.747
298.15 K | 862.207
303.15 K | 857.671
308.15 K | 853.138
313.15 K | 848.607
318.15 K | 844.073
323.15 K | 839.547

CCCCCCC [heptane]
[1]
Conditions | mass density [kg/m3]
288.15 K | 687.954
293.15 K | 683.733
298.15 K | 679.494
303.15 K | 675.229
308.15 K | 670.941
313.15 K | 666.621
318.15 K | 662.273
323.15 K | 657.896

CCCCCCC [heptane] + CCCCO
[2], x2 = 0
Conditions | mass density [kg/m3]
288.15 K | 687.954
293.15 K | 683.733
298.15 K | 679.494
303.15 K | 675.229
308.15 K | 670.941
313.15 K | 666.621
318.15 K | 662.273
323.15 K | 657.896

CCCCCCC [heptane] + NC1CCCCC1
[2], x2 = 0
Conditions | mass density [kg/m3]
288.15 K | 687.954
293.15 K | 683.733
298.15 K | 679.494
303.15 K | 675.229
308.15 K | 670.941
313.15 K | 666.621
318.15 K | 662.273
323.15 K | 657.896
